Assay results as given in patent US11129840B2, “Methods for identifying novel dosing regimens” (Zavante Therapeutics, Inc., priority 2017, dated 2021).
Values after ≈ are worked out from the molar mass of the structure shown. Marks after values point to notes of the source that are not given here.

Assays:
[1] = tested on: ESBL-producing K. pneumoniae isolate; experiment: Time-kill kinetic analysis; assay type: cell-based, Klebsiella pneumoniae; settings: FOS 1, 2, 4×MIC, 4 h
Method: Broth microdilution for FOS (Mueller-Hinton broth supplemented with 25 μg/mL glucose-6-phosphate) and comparators was performed before performing TKK. TKK employed MIC multiples for FOS, and ¼ and 1×MIC of select comparators, and combinations of FOS and comparator. TKK were sampled for colony counts at T0, T2, T4, T8 and T24 hours (h). Two Klebsiella pneumoniae isolates (one KPC and one ESBL), two Pseudomonas aeruginosa isolates (non-MDR), and one Acinetobacter baumannii isolate (MDR) were tested.

[2] = tested on: K. pneumoniae (KPC-producer) isolate; experiment: Time-kill kinetic analysis; assay type: cell-based, Klebsiella pneumoniae
Method: TKK were sampled for colony counts at T0, T2, T4, T8 and T24 hours (h). Two Klebsiella pneumoniae isolates (one KPC and one ESBL), two Pseudomonas aeruginosa isolates (non-MDR), and one Acinetobacter baumannii isolate (MDR) were tested.

Klebsiella pneumoniae = experiment: Reference agar dilution MIC, SENTRY US isolates; assay type: cell-based
Method: (§1) FOS was tested against over 1,400 GN and 800 GP clinical isolates collected in US medical centers as part of the SENTRY Antimicrobial Surveillance Program (96% of isolates from 2015) and a selection of 29 GN and 20 GP anaerobes. Isolates were susceptibility (S) tested against FOS and comparators by reference agar dilution (25 μg/mL glucose-6-phosphate supplementation) using existing FDA breakpoints of the oral formulation for comparative assessments.

E. cloacae complex = experiment: Reference agar dilution MIC, SENTRY US isolates; assay type: cell-based; settings: Enterobacter cloacae; randomly selected
Method: as §1

Enterobacter aerogenes = experiment: Reference agar dilution MIC, SENTRY US isolates; assay type: cell-based; settings: Klebsiella aerogenes; randomly selected
Method: as §1

Citrobacter koseri = experiment: Reference agar dilution MIC, SENTRY US isolates; assay type: cell-based; settings: randomly selected
Method: as §1

S. pyogenes = experiment: Reference agar dilution MIC, SENTRY US isolates; assay type: cell-based; settings: Streptococcus pyogenes
Method: as §1

Serratia marcescens = experiment: Reference agar dilution MIC, SENTRY US isolates; assay type: cell-based; settings: randomly selected
Method: as §1

E. faecalis = experiment: Reference agar dilution MIC, SENTRY US isolates; assay type: cell-based; settings: FDA oral breakpoints
Method: as §1

Enterobacteriaceae = experiment: Reference agar dilution MIC, SENTRY US isolates; assay type: cell-based; settings: selected Enterobacteriaceae
Method: as §1

S. agalactiae = experiment: Reference agar dilution MIC, SENTRY US isolates; assay type: cell-based; settings: Streptococcus agalactiae
Method: as §1

C. freundii complex = experiment: Reference agar dilution MIC, SENTRY US isolates; assay type: cell-based; settings: Citrobacter freundii; randomly selected
Method: as §1

Escherichia coli = experiment: Reference agar dilution MIC, SENTRY US isolates; assay type: cell-based; settings: randomly selected
Method: as §1

E. faecium = experiment: Reference agar dilution MIC, SENTRY US isolates; assay type: cell-based; settings: FDA oral breakpoints
Method: as §1

S. saprophyticus = experiment: Reference agar dilution MIC, SENTRY US isolates; assay type: cell-based; settings: Staphylococcus saprophyticus
Method: as §1

Proteus mirabilis = experiment: Reference agar dilution MIC, SENTRY US isolates; assay type: cell-based; settings: randomly selected
Method: as §1

Pseudomonas aeruginosa = experiment: Reference agar dilution MIC, SENTRY US isolates; assay type: cell-based
Method: as §1

[3] = tested on: Acinetobacter-baumannii-calcoaceticus complex; experiment: Reference agar dilution MIC, SENTRY US isolates; assay type: cell-based
Method: as §1

[4] = tested on: coagulase-negative staphylococci (CoNS) excluding S. saprophyticus; experiment: Reference agar dilution MIC, SENTRY US isolates; assay type: cell-based
Method: as §1

Staphylococcus aureus = experiment: Reference agar dilution MIC, SENTRY US isolates; assay type: cell-based
Method: as §1

[5] = tested on: Carbapenem-resistant Enterobacteriaceae (CRE) clinical isolates; experiment: Susceptibility testing, CRE clinical isolates; assay type: cell-based
[6] = tested on: Clostridium spp., Finegoldia magna, and Peptostreptococcus spp.; experiment: Reference agar dilution MIC, anaerobes; assay type: cell-based; settings: small collection
Method: as §1

Veillonella spp. = experiment: Reference agar dilution MIC, anaerobes; assay type: cell-based
Method: as §1

[7] = tested on: Prevotella and Porphyromonas spp.; experiment: Reference agar dilution MIC, anaerobes; assay type: cell-based
Method: as §1

Propionibacterium spp. = experiment: Reference agar dilution MIC, anaerobes; assay type: cell-based
Method: as §1

[8] = tested on: 5 EC (4 ESBL), 3 KPN (2 CR), and 2 PSA; experiment: MIC by agar dilution, isolates of the thigh infection study; assay type: cell-based; settings: 10 isolates
Method: (§2) 5 EC (4 ESBL), 3 KPN (2 CR), and 2 PSA were used. MICs were determined by agar dilution. […] PK/PD index determination was performed using a dose fractionation (DF) study design. […] The dose-response data was analyzed using the Emax Hill equation.

PSA = experiment: Thigh infection, static dose and PD targets; assay type: in vivo, mice
Method: as §2

EC = experiment: Thigh infection, static dose and PD targets; assay type: in vivo, mice
Method: as §2

KPN = experiment: Thigh infection, static dose and PD targets; assay type: in vivo, mice
Method: as §2

C[C@@H]1O[C@@H]1P(=O)(O)O [FOS, fosfomycin] was tested, and the “decrease in CFU” value [1] was 1.4-2.2 log10 CFU, the “increase in bacterial growth” value ([2]; FOS 0.5, 1 and 2×MIC, by 24 h) was “approximately 2 log10” and the “log10 reduction in bacterial growth (CFU)” value ([2]; FOS 2×MIC, by 4 h) was > 3 log10. The killing activity ([2]; FOS alone) was “bactericidal”, the “% of isolates ≤64 μg/mL” value (Klebsiella pneumoniae) was 97.0% and the MIC50 (Klebsiella pneumoniae; Klebsiella pneumoniae) was 4 µg/mL (≈ 29 µM). It also gave an MIC90 (Klebsiella pneumoniae; Klebsiella pneumoniae) of 16 µg/mL (≈ 116 µM), an MIC50 (E. cloacae complex) of 8 µg/mL (≈ 57.9 µM) and an MIC90 (E. cloacae complex) of 64 µg/mL (≈ 464 µM). For the same molecule, the MIC50 (Enterobacter aerogenes) was 8 µg/mL (≈ 57.9 µM), the MIC90 (Enterobacter aerogenes) was 16 µg/mL (≈ 116 µM) and the MIC50 (Citrobacter koseri) was 1 µg/mL (≈ 7.24 µM). For the same molecule, the MIC90 (Citrobacter koseri) was 1 µg/mL (≈ 7.24 µM), the MIC50 (S. pyogenes) was 32 µg/mL (≈ 232 µM) and the MIC90 (S. pyogenes) was 64 µg/mL (≈ 464 µM). For the same molecule, the MIC50 (Serratia marcescens) was 8 µg/mL (≈ 57.9 µM), the MIC90 (Serratia marcescens) was 16 µg/mL (≈ 116 µM) and the “% S” value (E. faecalis) was 99.0%. The “% intermediate” value (E. faecalis) was 1.0%, the MIC50 (Enterobacteriaceae) was 4 µg/mL (≈ 29 µM) and the MIC50 (S. agalactiae) was 8 µg/mL (≈ 57.9 µM). It also gave an MIC90 (S. agalactiae) of 64 µg/mL (≈ 464 µM), an MIC50 (C. freundii complex) of 0.5 µg/mL (≈ 3.62 µM) and an MIC90 (C. freundii complex) of 1 µg/mL (≈ 7.24 µM). For the same molecule, the MIC50 (Escherichia coli; Escherichia coli) was 0.5 µg/mL (≈ 3.62 µM), the MIC90 (Escherichia coli; Escherichia coli) was 1 µg/mL (≈ 7.24 µM) and the “% S to FOS” value (Escherichia coli; FDA oral breakpoints) was 100.0%. For the same molecule, the “% S” value (E. faecium) was 79.8%, the “% intermediate” value (E. faecium) was 19.2% and the MIC50 (S. saprophyticus) was 128 µg/mL (≈ 927 µM). The MIC90 (S. saprophyticus) was > 256 µg/mL, the MIC50 (Proteus mirabilis) was 1 µg/mL (≈ 7.24 µM) and the MIC90 (Proteus mirabilis) was 8 µg/mL (≈ 57.9 µM). For the same molecule, the MIC50 (Pseudomonas aeruginosa) was 64 µg/mL (≈ 464 µM), the MIC90 (Pseudomonas aeruginosa) was 128 µg/mL (≈ 927 µM) and the MIC50 [3] was 128 µg/mL (≈ 927 µM). It also gave an MIC90 [3] of 256 µg/mL (≈ 1850 µM), an MIC50 [4] of 8 µg/mL (≈ 57.9 µM) and an MIC90 ([4]; Staphylococcus saprophyticus) of 64 µg/mL (≈ 464 µM). It also gave an MIC50 (Staphylococcus aureus) of 4 µg/mL (≈ 29 µM), an MIC90 (Staphylococcus aureus) of 8 µg/mL (≈ 57.9 µM) and an MIC ([5]; FOS R isolate with fosA2 and SNP in glpT) of 256 µg/mL (≈ 1850 µM). The MIC ([5]; FOS-R isolate harboring fosA3) was > 1020 µg/mL, the “No. of isolates with FOS MIC>64 μg/mL” value ([5]; of 50 isolates) was 3 and the MIC ([5]; third FOS-R isolate (OXA-181+, CTXM-15+Kp)) was 128 µg/mL (≈ 927 µM). The MIC range [6] was 0.5 to 32 µg/mL, the MIC range (Veillonella spp.) was ≤0.03 to 0.06 µg/mL and the MIC [7] was > 256 µg/mL. For the same molecule, the MIC (Propionibacterium spp.) was > 256 µg/mL, the MIC range [8] was 1 to 16 µg/mL and the “Static Dose” value (PSA; mean) was 1920 mg/kg/24 h. For the same molecule, the “Stasis AUC/MIC” value (PSA; mouse, in vivo) was 15, the “Stasis T > MIC” value (PSA; mouse, in vivo) was 29% and the “Static Dose” value (EC; mean) was 847 mg/kg/24 h. The “Stasis AUC/MIC” value (EC; median target) was 19.3*, the “Stasis T > MIC” value (EC; median target) was 37.7* % and the “Static Dose” value (KPN; mean) was 1667 mg/kg/24 h. The “Stasis AUC/MIC” value (KPN; median target) was 11.1* and the “Stasis T > MIC” value (KPN; median target) was 26.5* %.
